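Cells were grown in 96-well plates and exposed to each compound for 48 hours at five concentrations; endpoints were interpolated linearly between bracketing concentrations, or set to the highest concentration if not reached. TGI marks complete inhibition of growth.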
Tests used:
Assay in all cases: inhibition of tumour cell growth, NCI panel, 48 h
MALME-3M melanoma = test system: MALME-3M melanoma
T-47D breast = test system: T-47D breast
IGROV1 ovarian = test system: IGROV1 ovarian
786-0 renal = test system: 786-0 renal
CAKI-1 renal = test system: CAKI-1 renal
SNB-19 CNS = test system: SNB-19 CNS
HS 578T breast = test system: HS 578T breast
A549 NSCLC = test system: A549 NSCLC
KM12 colon = test system: KM12 colon

Compound | TGI (MALME-3M melanoma) | TGI (T-47D breast) | TGI (IGROV1 ovarian) | TGI (786-0 renal) | TGI (CAKI-1 renal) | TGI (SNB-19 CNS) | TGI (HS 578T breast) | TGI (A549 NSCLC) | TGI (KM12 colon)
O=C(Nc1nccs1)NS(=O)(=O)n1cnc2ccccc21 | > 100 µM | > 100 µM | > 100 µM | > 100 µM | > 100 µM | > 100 µM | > 100 µM | > 100 µM | > 100 µM
CC1=CC(=O)/C(=C/N2C(=O)CNC2=S)C(=O)O1 | – | > 100 µM | > 100 µM | > 100 µM | > 100 µM | > 100 µM | – | > 100 µM | > 100 µM
O=C1NC(N2CCCCC2)=N/C1=C\c1ccccc1 | > 100 µM | > 100 µM | > 100 µM | > 100 µM | > 100 µM | > 100 µM | > 100 µM | > 100 µM | > 100 µM
COc1ccc(NC(=S)Nc2c(C)n(C)n(-c3ccccc3)c2=O)cc1 | > 100 µM | – | > 100 µM | > 100 µM | > 100 µM | > 100 µM | > 100 µM | > 100 µM | > 100 µM
C#CCOC(=O)[C@@H](C)c1ccc2cc(OC)ccc2c1 | – | > 100 µM | > 100 µM | > 100 µM | > 100 µM | > 100 µM | > 100 µM | – | > 100 µM
CC(=O)OCCCCn1cnc2c(Cl)nc(Nc3ccccc3)nc21 | > 100 µM | > 100 µM | > 100 µM | > 100 µM | 62 µM | – | > 100 µM | > 100 µM | > 100 µM
O=C(c1cccc2cc(O)ccc12)c1cn(CCN2CCOCC2)c2ccccc12 | 56.3 µM | > 100 µM | 43.4 µM | 42.3 µM | > 100 µM | > 100 µM | – | – | –
CCNC1=C(NC(=O)CCl)C(=O)c2ccccc2C1=O | 34.9 µM | 44.7 µM | > 10 µM | > 100 µM | – | 54.5 µM | 60.6 µM | 99.6 µM | 32 µM
S=C(S)N1CCN(c2ccccc2)CC1 | > 100 µM | > 100 µM | > 100 µM | > 100 µM | > 100 µM | > 100 µM | > 100 µM | > 100 µM | > 100 µM
CC1(C)CC[C@]2(C(=O)O)CC[C@]3(C)C(=CC[C@@H]4[C@@]5(C)CC[C@H](OC6OC(CO)C(O)C(O)C6O)C(C)(C)[C@@H]5CC[C@]43C)[C@@H]2C1 (stereo partly specified) | 3.16 µM | 3.55 µM | 3.06 µM | 3.23 µM | 5.93 µM | 2.89 µM | 4.74 µM | 3.08 µM | 2.86 µM
COc1ccc(/C=C2/SC(c3c(O)ccc4ccccc34)N(NC(=O)CCCCCCCCC(=O)NN3C(=O)/C(=C\c4ccc(OC)c(OC)c4)SC3c3c(O)ccc4ccccc34)C2=O)cc1OC (stereo unspecified) | 51.4 µM | 48.9 µM | 10.7 µM | > 20.5 µM | > 100 µM | > 91.7 µM | – | > 21.4 µM | > 100 µM
COc1ccc(NC(=O)CC(=O)N2N=C(C)C(N=Nc3ccc(C(=O)O)cc3)C2=O)cc1 (stereo unspecified) | > 100 µM | > 100 µM | > 100 µM | > 100 µM | > 100 µM | > 100 µM | > 100 µM | > 100 µM | > 100 µM
C=CCN(c1cc(OC)c2c(c1[N+](=O)[O-])C(C)(SC)C(=O)N2)S(C)(=O)=O (stereo unspecified) | > 100 µM | > 100 µM | > 100 µM | > 100 µM | > 100 µM | > 100 µM | > 100 µM | > 100 µM | > 100 µM
Cn1c(O)c(C=Nc2ccc(Cl)cc2Cl)c(=O)n(C)c1=O | > 100 µM | > 100 µM | > 100 µM | > 100 µM | > 100 µM | > 100 µM | > 100 µM | > 100 µM | > 100 µM
Nc1nc(Cl)c(C=O)c(NCC2(CO)CCC2)n1 | > 100 µM | > 100 µM | 25.9 µM | > 100 µM | 33.9 µM | 34.4 µM | 67.9 µM | > 100 µM | > 100 µM
COc1ccc(C(=O)N(Cc2cccnc2)C(=S)N(Cc2cccnc2)C(=O)c2ccc(OC)cc2)cc1 | > 100 µM | > 100 µM | – | > 100 µM | > 100 µM | > 100 µM | > 100 µM | > 100 µM | > 100 µM
COc1cc(C(=O)N(C(=S)OC23CC4CC(CC(C4)C2)C3)c2ccccc2)cc(OC)c1OC | 82.1 µM | > 100 µM | – | > 100 µM | > 100 µM | > 100 µM | > 100 µM | > 100 µM | > 100 µM
C(/C=C/Nc1ccc(-c2ccccc2)cc1)=Nc1ccc(-c2ccccc2)cc1 | – | > 100 µM | > 100 µM | > 100 µM | > 100 µM | > 100 µM | > 100 µM | > 100 µM | > 100 µM
CCOC(OCC)[C@H](N)[C@@H](O)[C@@H](O)[C@H]1COC(C)(C)O1 | > 100 µM | – | > 100 µM | > 100 µM | – | > 100 µM | > 100 µM | > 100 µM | > 100 µM
C(#C[C@@]12CCC[C@@H]1N(Cc1ccccc1)CO2)c1ccc2c(c1)OCO2 | > 100 µM | > 100 µM | – | > 100 µM | > 100 µM | > 100 µM | > 100 µM | > 100 µM | > 100 µM
COc1ccc2c(c1)OC1c3ccccc3OCC21 (stereo unspecified) | – | > 100 µM | > 100 µM | > 100 µM | > 100 µM | > 100 µM | > 100 µM | – | > 100 µM
ClCCc1ccccc1CC1=NCCc2ccccc21 | – | > 100 µM | > 100 µM | > 100 µM | 92.4 µM | > 100 µM | > 100 µM | > 100 µM | > 100 µM
CNC(=O)OCC1=C(COC(=O)NC)C(C)N(c2ccccc2)C1 (stereo unspecified) | 97.4 µM | > 100 µM | 98.4 µM | > 100 µM | – | > 100 µM | > 100 µM | > 100 µM | > 100 µM

Reference: PubChem BioAssay (NCI)
